compound: CC(C)C[C@H](NC(=O)[C@H](CCc1ccccc1)NC(=O)CN1CCOCC1)C(=O)N[C@@H](Cc1ccccc1)C(=O)N[C@@H](CC(C)C)C(=O)[C@@]1(C)CO1 [Carfilzomib] + CC(=O)Nc1cccc(-n2c(=O)n(C3CC3)c(=O)c3c(Nc4ccc(I)cc4F)n(C)c(=O)c(C)c32)c1 [Trametinib] (partner 0.02 µM); assay: relative viability (nuclei count vs DMSO), 5 days (fraction); higher = more cells survive; conditions: first compound 0.001 µM
Procedure, shortened: (§1)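 Lung cancer cell lines in 1536-well plates got either a single drug or a fixed anchor-drug dose together with five library-drug doses (not always all listed) in √10 steps, by pin tool, on the day after seeding. Nuclei were counted after 5 days, and relative viability is the treated-to-vehicle ratio of nuclei counts. Values are medians of duplicate plates.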

Point of comparison: PC-3 [JPC-3], relative viability 0.77. Against it:
- NCI-H3122 — lower, 0.196
- PC-14 — lower, 0.749
- RERF-LC-KJ — higher, 0.864

same assay, conditions: first compound 0.003162 µM

Point of comparison: SW 900, relative viability 0.804. Against it:
- NCI-H3122 — lower, 0.234
- PC-3 [JPC-3] — lower, 0.679
- PC-14 — lower, 0.672
- RERF-LC-KJ — higher, 0.908

same assay, conditions: first compound 0.01 µM

Point of comparison: RERF-LC-KJ, relative viability 0.941. Against it:
- NCI-H3122 — lower, 0.255
- PC-3 [JPC-3] — lower, 0.706
- PC-14 — lower, 0.588
- SW 900 — lower, 0.163

same assay, conditions: first compound 0.03162 µM

Point of comparison: PC-3 [JPC-3], relative viability 0.552. Against it:
- NCI-H3122 — lower, 0.244
- PC-14 — lower, 0.0506
- RERF-LC-KJ — lower, 0.511
- SW 900 — lower, 0.177

same assay, conditions: first compound 0.1 µM

Point of comparison: PC-14, relative viability 0.0646. Against it:
- NCI-H3122 — higher, 0.239
- PC-3 [JPC-3] — higher, 0.279
- RERF-LC-KJ — higher, 0.211
- SW 900 — higher, 0.126

compound: C[C@@H](Oc1cc(-c2cnn(C3CCNCC3)c2)cnc1N)c1c(Cl)ccc(F)c1Cl [Crizotinib] + Cc1cc(Nc2cc(N3CCN(C)CC3)nc(Sc3ccc(NC(=O)C4CC4)cc3)n2)n[nH]1 [Tozasertib] (partner 0.1 µM); assay: as above; conditions: first compound 0.01 µM
Procedure, shortened: as §1

Point of comparison: SW 900, relative viability 0.657. Against it:
- NCI-H3122 — lower, 0.404
- PC-3 [JPC-3] — higher, 0.834
- PC-14 — lower, 0.545
- RERF-LC-KJ — lower, 0.455

same assay, conditions: first compound 0.03162 µM

Point of comparison: PC-3 [JPC-3], relative viability 0.878. Against it:
- NCI-H3122 — lower, 0.34
- PC-14 — lower, 0.625
- RERF-LC-KJ — lower, 0.516
- SW 900 — lower, 0.541

same assay, conditions: first compound 0.1 µM

Point of comparison: SW 900, relative viability 0.512. Against it:
- NCI-H3122 — lower, 0.457
- PC-3 [JPC-3] — higher, 0.934
- PC-14 — higher, 0.624
- RERF-LC-KJ — lower, 0.49

same assay, conditions: first compound 0.3162 µM

Point of comparison: RERF-LC-KJ, relative viability 0.477. Against it:
- NCI-H3122 — lower, 0.181
- PC-3 [JPC-3] — higher, 0.836
- PC-14 — higher, 0.593
- SW 900 — higher, 0.52

same assay, conditions: first compound 1 µM

Point of comparison: NCI-H3122, relative viability 0.154. Against it:
- PC-3 [JPC-3] — higher, 0.855
- PC-14 — higher, 0.602
- RERF-LC-KJ — higher, 0.527
- SW 900 — higher, 0.613

compound: C[C@@H](Oc1cc(-c2cnn(C3CCNCC3)c2)cnc1N)c1c(Cl)ccc(F)c1Cl [Crizotinib] + O=C(CCCCCCC(=O)Nc1ccccc1)NO [Vorinostat] (partner 1 µM); assay: as above; conditions: first compound 0.01 µM
Procedure, shortened: as §1

Point of comparison: SW 900, relative viability 0.422. Against it:
- NCI-H3122 — higher, 0.929
- PC-3 [JPC-3] — higher, 0.687
- PC-14 — higher, 0.632
- RERF-LC-KJ — higher, 0.695

same assay, conditions: first compound 0.03162 µM

Point of comparison: PC-14, relative viability 0.792. Against it:
- NCI-H3122 — lower, 0.753
- PC-3 [JPC-3] — higher, 0.903
- RERF-LC-KJ — lower, 0.708
- SW 900 — lower, 0.615

same assay, conditions: first compound 0.1 µM

Point of comparison: PC-14, relative viability 0.693. Against it:
- NCI-H3122 — higher, 0.932
- PC-3 [JPC-3] — higher, 1.16
- RERF-LC-KJ — higher, 0.709
- SW 900 — lower, 0.511

same assay, conditions: first compound 0.3162 µM

Point of comparison: NCI-H3122, relative viability 0.941. Against it:
- PC-14 — lower, 0.608
- RERF-LC-KJ — lower, 0.566
- SW 900 — lower, 0.481

same assay, conditions: first compound 1 µM

Point of comparison: PC-14, relative viability 0.784. Against it:
- NCI-H3122 — higher, 0.961
- PC-3 [JPC-3] — lower, 0.71
- RERF-LC-KJ — lower, 0.773
- SW 900 — lower, 0.712

compound: CC(C)C[C@H](NC(=O)[C@H](CCc1ccccc1)NC(=O)CN1CCOCC1)C(=O)N[C@@H](Cc1ccccc1)C(=O)N[C@@H](CC(C)C)C(=O)[C@@]1(C)CO1 [Carfilzomib] + NC(=O)Nc1cc(-c2cccc(F)c2)sc1C(=O)N[C@H]1CCCNC1 [AZD7762] (partner 0.2 µM); assay: as above; conditions: first compound 0.001 µM
Procedure, shortened: as §1

Point of comparison: PC-14, relative viability 0.377. Against it:
- NCI-H3122 — higher, 0.948
- PC-3 [JPC-3] — higher, 0.882
- RERF-LC-KJ — higher, 0.827

same assay, conditions: first compound 0.003162 µM

Point of comparison: RERF-LC-KJ, relative viability 1.11. Against it:
- NCI-H3122 — lower, 1.05
- PC-3 [JPC-3] — lower, 0.762
- PC-14 — lower, 0.368
- SW 900 — lower, 0.67

same assay, conditions: first compound 0.01 µM

Point of comparison: NCI-H3122, relative viability 1. Against it:
- PC-3 [JPC-3] — lower, 0.993
- PC-14 — lower, 0.392
- RERF-LC-KJ — higher, 1.24
- SW 900 — lower, 0.226

same assay, conditions: first compound 0.03162 µM

Point of comparison: PC-3 [JPC-3], relative viability 0.512. Against it:
- NCI-H3122 — higher, 0.895
- PC-14 — lower, 0.158
- RERF-LC-KJ — higher, 0.927
- SW 900 — lower, 0.168

same assay, conditions: first compound 0.1 µM

Point of comparison: RERF-LC-KJ, relative viability 0.309. Against it:
- NCI-H3122 — higher, 0.588
- PC-3 [JPC-3] — lower, 0.248
- PC-14 — lower, 0.0776
- SW 900 — lower, 0.206

From the supplement of paper PMC10307832
